# “Also recorded” adds a separate entry of the source.
# Tests used:
# diabetic porcine model = assay: Site-loss evaluation of insulin infusion sets in diabetic porcine model (blood glucose >350 mg/dl not corrected by insulin); type: in vivo, pig; conditions: for site-loss performance versus the control: agent formulated with insulin (Humalog)
# Description: The objectives of this study include duplicating the site-loss phenomena observed in previous studies using a diabetic porcine model. Additionally, various infusion set configurations are evaluated for reducing site-loss and extending infusion set wear. Further, site-loss is mitigated using a response-inhibiting agent and/or infusion pump to increase reliability of wear for 3 days and extend infusion set wear beyond 3 days.
# The objectives of this study include: duplicating the site-loss phenomena observed in previous studies using the diabetic porcine model; using the established diabetic porcine model to evaluate the effects of various infusion set designs on infusion site-loss; and testing if site-loss can be mitigated by direct pump infusing of immunosuppressant/anti-inflammatory drugs, and/or by modifying infusion set by drug coating.
# This study is designed so that each set (inserted under anesthesia) is to be worn for 1 week unless there was set failure/dislodge. Glucose is monitored by a blood glucose meter and Enlite™ sensor. The criteria for determining site loss is that blood glucose is greater than 350 mg/dl and fails to decrease following an insulin dose correction. During biopsy pumps are removed but the cannula is maintained in-situ. Site skin is examined for edema/erythema (swell/redness) (see FIG. 8).
# [1] = Assay of rapamycin/Humalog solution after use; type: physicochemical; conditions: 20 μg/mL solution assayed after use
# diabetic pig = assay: Histopathology of infusion sites (inflammation at catheter tip and body); type: in vivo; conditions: listed as Humalog™
# Description: FIG. 2A is a series of histologic evaluations at the catheter tip showing the inflammatory response (score), and size of the area with tissue reaction. “*” indicates the catheter location and “F” indicates normal fat. […] FIG. 2B is a series of graphs illustrating the inflammation at the catheter tip for diabetic and non-diabetic pigs. Localized inflammation loosely correlated with site-loss.
# FIG. 2C is a series of graphs illustrating the predominate inflammation cells at the catheter tip and catheter body (qualitative). To isolate the main inflammation contributors, a catheter, a catheter infused with insulin (Humalog™), and a catheter infused with placebo were placed on a diabetic pig at the same time.
# FIG. 2D is a series of graphs illustrating the predominate inflammation cells at the catheter tip and catheter body of an insulin injection port (i-Port™). To isolate the main inflammation contributors, a catheter, a catheter infused with insulin, and a catheter infused with placebo were placed on a diabetic pig. Compared to continuous infusion, the giant cells are missing in the i-Port™ study. […] As observed by the pathologist, the pigs may have developed a hypersensitivity to the Humalog™ and such a reaction would contribute to the inflammation seen (the degree that hypersensitivity is influencing the inflammation is unclear but it could be one of the main drivers).
# [2] = tested on: normal and diabetic Yucatan pigs; assay: PK/PD study: blood glucose response to Humalog; type: in vivo, Yucatan pig
# Description: Factors influencing insulin pK/pD properties include inflammation, infection, immune response, wound healing cascade, age of patients, type of insulin used, site of insertion, layer of scar tissue where the catheter tip resides, and several others. 6 Yucatan pigs were used in this study: 2 normal and 4 diabetic pigs, as shown in […]
compound,measurement,setting,value
"C[C@H]1C[C@H]2[C@@H]3CCC4=CC(=O)C=C[C@]4(C)[C@@]3(F)[C@@H](O)C[C@]2(C)[C@@]1(O)C(=O)COP(=O)([O-])[O-].[Na+].[Na+] [BSP, betamethasone sodium phosphate]",site-loss performance versus the control,diabetic porcine model,significantly worse than the control
"C[C@@H]1C[C@H]2[C@@H]3CCC4=CC(=O)C=C[C@]4(C)[C@@]3(F)[C@@H](O)C[C@]2(C)[C@@]1(O)C(=O)COP(=O)(O)O [DXP, Dexamethasone Phosphate]",site-loss performance versus the control,diabetic porcine model,significantly worse than the control
CO[C@H]1C[C@@H]2CC[C@@H](C)[C@@](O)(O2)C(=O)C(=O)N2CCCC[C@H]2C(=O)O[C@H]([C@H](C)C[C@@H]2CC[C@@H](O)[C@H](OC)C2)CC(=O)[C@H](C)/C=C(\C)[C@@H](O)[C@@H](OC)C(=O)[C@H](C)C[C@H](C)/C=C/C=C/C=C/1C [Rapamycin],recovery of infusion site after,diabetic porcine model; dosed with Humalog,around 6 days
same,duration of wear before site-loss,"diabetic porcine model; formulation of insulin (Humalog) with agent, Sof-Set",5 days
same,stability of rapamycin in U100 Humalog solution,[1],*Rapamycin was later found to be degraded by assaying solution after use.
Dextran Sulfate Sodium Salt,site-loss performance versus the control,diabetic porcine model,significantly better than the control
Insulin lispro,order of evaluated inflammation scores,"diabetic pig; catheter, catheter infused with insulin, catheter infused with placebo on a diabetic pig",insulin≥placebo≥catheter; also recorded: insulin≥placebo≥cannula
same,localized inflammation / tissue fibrosis,diabetic pig; compared to catheter and placebo,associated with increased localized inflammation; also recorded: main contributor to localized tissue fibrosis
same,blood glucose level lowering,[2],effectively lower blood glucose level
heparin sodium,no site-loss occurred in,"diabetic porcine model; U100 Humalog with heparin sodium 3.55 mg/mL (685 U/mL), continuous infusion, pigs IM3 and IM4, control IM1 site-loss in 2 days",> 6 days
same,site-loss performance versus the control,diabetic porcine model,significantly better than the control

# — US12465617B2, “Methods and systems for inhibiting foreign-body responses in diabetic patients” (Medtronic MiniMed, Inc., priority 2013, dated 2025)
